BindingDB's records for doi:10.1002/cbic.201600267 (Fairfield University, 2016)

Target: Beta-galactosidase (Escherichia coli (strain K12), UniProt P00722)
Assay: beta-Galactosidase Assay
Settings: 30 °C
Experimental: Enzymatic activity of beta-galactosidase from Escherichia coli (1.2 x 10^-10 M) was measured using the colorimetric substrate ortho-nitrophenyl-b-galactoside ([ONPG]: 2500, 2000, 1500, 1000, 500, 250, 125 uM) in Z-Buffer (100 mM sodium phosphate at pH = 7, 10 mM KCl, 1 mM MgSO4) to which was added fresh 50 mM beta-mercaptoethanol at 30 °C. In a 96-well plate were combined a 5x stock solution of Z-buffer (containing 250 mM beta-mercaptoethanol) and 5x stock solutions of ONPG. Samples were adjusted to a final volume of 180 uL with water. Samples were equilibrated at 30 °C for 5 minutes on a Synergy H1 microplate reader. A 10x stock solution of enzyme (20 uL) was then injected into each well and the production of 2-nitrophenol was quantified at 410 nm over a period of 10 minutes.

Chain of Beta-galactosidase (P00722 whole entry): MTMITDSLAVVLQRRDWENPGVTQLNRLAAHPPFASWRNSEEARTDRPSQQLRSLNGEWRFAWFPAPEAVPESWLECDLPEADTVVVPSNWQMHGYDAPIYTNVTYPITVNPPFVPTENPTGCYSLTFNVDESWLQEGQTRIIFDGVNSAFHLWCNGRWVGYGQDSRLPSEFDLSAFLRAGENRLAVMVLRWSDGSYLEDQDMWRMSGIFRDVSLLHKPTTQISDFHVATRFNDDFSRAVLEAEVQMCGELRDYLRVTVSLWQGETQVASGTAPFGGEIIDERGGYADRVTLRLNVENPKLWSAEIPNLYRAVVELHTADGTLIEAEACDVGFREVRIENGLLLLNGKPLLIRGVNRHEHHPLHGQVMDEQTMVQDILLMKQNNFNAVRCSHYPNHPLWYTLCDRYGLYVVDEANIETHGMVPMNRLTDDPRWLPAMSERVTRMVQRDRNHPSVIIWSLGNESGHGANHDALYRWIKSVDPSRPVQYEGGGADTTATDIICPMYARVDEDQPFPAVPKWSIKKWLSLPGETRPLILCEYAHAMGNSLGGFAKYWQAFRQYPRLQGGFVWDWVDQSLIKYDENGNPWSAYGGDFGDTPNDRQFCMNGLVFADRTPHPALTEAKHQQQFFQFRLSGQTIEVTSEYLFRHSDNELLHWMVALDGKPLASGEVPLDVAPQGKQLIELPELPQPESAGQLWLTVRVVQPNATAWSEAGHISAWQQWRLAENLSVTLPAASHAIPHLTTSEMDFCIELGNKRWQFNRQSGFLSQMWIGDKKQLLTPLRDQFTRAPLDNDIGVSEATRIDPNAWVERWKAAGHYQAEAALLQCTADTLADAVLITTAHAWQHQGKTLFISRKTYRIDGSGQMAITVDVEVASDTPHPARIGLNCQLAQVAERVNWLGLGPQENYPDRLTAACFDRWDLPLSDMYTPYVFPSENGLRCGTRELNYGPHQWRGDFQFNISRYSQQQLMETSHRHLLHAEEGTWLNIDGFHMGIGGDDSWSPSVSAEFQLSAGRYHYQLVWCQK

| Structure (SMILES) | Ki |
| --- | --- |
| CC(C)S[C@@H]1O[C@H](CO)[C@H](O)[C@H](O)[C@H]1O [IPTG] | 76 µM |
| O=C(NCCOCCOCCOCCNC(=O)c1ccc(C(=O)OCCS[C@@H]2O[C@H](CO)[C@H](O)[C@H](O)[C@H]2O)c(C(c2ccccc2)c2ccccc2)c1)c1ccc(C(=O)c2ccccc2)cc1 [β-gal inhibitor, 13] | 3 µM |
| O=C(NCCOCCOCCOCCNC(=O)c1ccc(C(=O)OCCOCCS[C@@H]2O[C@H](CO)[C@H](O)[C@H](O)[C@H]2O)c(C(c2ccccc2)c2ccccc2)c1)c1ccc(C(=O)c2ccccc2)cc1 [β-gal inhibitor, 14] | 3.9 µM |
| O=C(NCCOCCOCCOCCNC(=O)c1ccc(C(=O)OCCOCCOCCOCCS[C@@H]2O[C@H](CO)[C@H](O)[C@H](O)[C@H]2O)c(C(c2ccccc2)c2ccccc2)c1)c1ccc(C(=O)c2ccccc2)cc1 [β-gal inhibitor, 15] | 5.9 µM |
